Measured values taken from ChEMBL document CHEMBL1147978, “Small molecule inhibitors of a glycoside hydrolase attenuate inducible AmpC-mediated beta-lactam resistance” (J Biol Chem, 2007).
pIC50: −log10 of the molar value. In brackets after ≈: the same amount, converted by molar mass.

Columns and labels:
[1] = biological target: Protein O-GlcNAcase (Homo sapiens) (UniProt O60502); experiment: Inhibition of human family 84 O-GLcNAcase
[2] = biological target: T1, Beta-hexosaminidase (Vibrio cholerae serotype O1 (strain ATCC 39315 / El Tor Inaba N16961)) (UniProt Q9KU37); experiment: Inhibition of Vibrio cholerae NagZ
T1 sequence (whole entry): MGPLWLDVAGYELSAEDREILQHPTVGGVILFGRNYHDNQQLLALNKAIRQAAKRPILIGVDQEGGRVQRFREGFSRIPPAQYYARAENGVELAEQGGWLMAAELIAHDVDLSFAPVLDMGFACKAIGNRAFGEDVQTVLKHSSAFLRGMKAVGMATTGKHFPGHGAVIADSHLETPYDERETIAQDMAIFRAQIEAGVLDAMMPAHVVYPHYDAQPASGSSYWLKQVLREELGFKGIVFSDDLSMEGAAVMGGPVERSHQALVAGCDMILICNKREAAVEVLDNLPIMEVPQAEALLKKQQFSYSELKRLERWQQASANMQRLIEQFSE

[3] = Ratio of human 84 O-GLcNAcase to Vibrio cholerae NagZ
[4] = Inhibition of bovine family 20 beta-hexosaminidase; design: species or system Bos taurus
Homo sapiens = species: Homo sapiens; experiment: Inhibition of human family 20 beta-hexosaminidase
[5] = Selectivity for Vibrio cholerae NagZ over human family 84 O-GLcNAcas
[6] = Selectivity for Vibrio cholerae NagZ over human family 20 beta-hexosaminidase
Escherichia coli [7] = experiment: Antimicrobial activity against wild type Escherichia coli transfected with pCF1 by serial dilution method
Escherichia coli [8] = experiment: Antimicrobial activity against wild type Escherichia coli transfected with pCF1 in medium containing EtbuPUG by agar diffusion assay; format: functional
Escherichia coli [9] = experiment: Antimicrobial activity against ampD deficient Escherichia coli transfected with pCF1 by serial dilution method; format: functional
Escherichia coli [10] = experiment: Antimicrobial activity against wild type Escherichia coli transfected with pCF1 by agar diffusion assay; format: functional
Escherichia coli [11] = experiment: Antimicrobial activity against wild type Escherichia coli by serial dilution method; format: functional
Escherichia coli [12] = experiment: Antimicrobial activity against wild type Escherichia coli in medium containing EtbuPUG by serial dilution method; format: functional
Escherichia coli [13] = experiment: Antimicrobial activity against ampD deficient Escherichia coli transfected with pCF1 by agar diffusion assay; format: functional
Escherichia coli [14] = experiment: Antimicrobial activity against ampD deficient Escherichia coli transfected with pCF1 in medium containing EtbuPUG by serial dilution method; format: functional
Escherichia coli [15] = experiment: Antimicrobial activity against ampD deficient Escherichia coli transfected with pCF1 in medium containing EtbuPUG by agar diffusion assay; format: functional
Escherichia coli [16] = experiment: Antimicrobial activity against ampD deficient Escherichia coli in medium containing EtbuPUG by serial dilution method; format: functional
Escherichia coli [17] = experiment: Antimicrobial activity against wild type EtbuPUG treated Escherichia coli transfected with pCF1 by serial dilution method; format: functional
Escherichia coli [18] = experiment: Antimicrobial activity against ampD deficient Escherichia coli by serial dilution method; format: functional

Sequence of Protein O-GlcNAcase (Homo sapiens) (O60502 whole entry, looked up): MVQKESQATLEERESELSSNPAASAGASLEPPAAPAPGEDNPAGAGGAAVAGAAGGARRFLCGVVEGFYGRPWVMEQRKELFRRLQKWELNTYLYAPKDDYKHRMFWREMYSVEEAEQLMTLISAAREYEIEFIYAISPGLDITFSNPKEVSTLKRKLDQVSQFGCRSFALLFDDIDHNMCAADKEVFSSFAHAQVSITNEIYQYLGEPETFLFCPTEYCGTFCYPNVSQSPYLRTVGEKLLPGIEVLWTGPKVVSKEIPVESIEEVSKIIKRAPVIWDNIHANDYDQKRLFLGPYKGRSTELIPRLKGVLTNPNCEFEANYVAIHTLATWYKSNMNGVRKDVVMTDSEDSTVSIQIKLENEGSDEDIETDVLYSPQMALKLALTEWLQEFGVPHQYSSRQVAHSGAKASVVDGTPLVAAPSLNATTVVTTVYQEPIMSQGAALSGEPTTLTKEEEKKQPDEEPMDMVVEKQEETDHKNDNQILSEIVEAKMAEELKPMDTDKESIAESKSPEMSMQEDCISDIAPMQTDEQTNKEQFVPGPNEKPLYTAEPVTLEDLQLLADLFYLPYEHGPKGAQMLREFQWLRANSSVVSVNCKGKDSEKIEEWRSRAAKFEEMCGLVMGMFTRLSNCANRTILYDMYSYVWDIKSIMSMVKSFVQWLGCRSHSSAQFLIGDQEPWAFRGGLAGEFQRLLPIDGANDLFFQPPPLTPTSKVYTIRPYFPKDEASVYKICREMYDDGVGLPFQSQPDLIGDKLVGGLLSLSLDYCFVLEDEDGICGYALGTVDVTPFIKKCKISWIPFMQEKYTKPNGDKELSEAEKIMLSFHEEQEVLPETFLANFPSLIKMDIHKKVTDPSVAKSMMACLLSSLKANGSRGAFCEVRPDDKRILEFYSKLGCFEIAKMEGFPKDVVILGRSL

`CC(=O)N[C@H]1c2nc(CC(=O)O)cn2[C@H](CO)[C@@H](O)[C@@H]1O` showed a Ki [1] of 0.43 µM, a Kinact [2] of 15 µM and a Selectivity ratio [3] of 0.03. It also gave a pIC50 [4] of 8.28.
`CC(=O)N[C@H]1/C(=N/O)O[C@H](CO)[C@@H](O)[C@@H]1O` gave a Ki [1] of 6.4 µM, a Kinact [2] of 0.22 µM and a Selectivity ratio [3] of 29.
`CC(=O)N[C@H]1/C(=N/OC(=O)Nc2ccccc2)O[C@H](CO)[C@@H](O)[C@@H]1O` showed a Kinact [2] of 0.048 µM and a Ki (Homo sapiens) of 0.036 µM.
Compound `CC(C)C(=O)N[C@H]1/C(=N/OC(=O)Nc2ccccc2)O[C@H](CO)[C@@H](O)[C@@H]1O` has a Ki [1] of 9 µM, a Kinact [2] of 0.51 µM and a Selectivity ratio [3] of 18. It also gave a Ki (Homo sapiens) of 20 µM.
In the case of `CC(C)CC(=O)N[C@H]1/C(=N/OC(=O)Nc2ccccc2)O[C@H](CO)[C@@H](O)[C@@H]1O`, the Ki [1] was 190 µM, the Kinact [2] was 15 µM and the Selectivity ratio [3] was 13. For the same compound, the Ki (Homo sapiens) was > 1200 µM.
Work on `CCC(=O)N[C@H]1/C(=N/OC(=O)Nc2ccccc2)O[C@H](CO)[C@@H](O)[C@@H]1O` yielded a Ki [1] of 1.2 µM, a Kinact [2] of 0.16 µM and a Selectivity ratio [3] of 7.5. It also gave a Ki (Homo sapiens) of 1.2 µM.
For `CCC(CC)C(=O)N[C@H]1/C(=N/OC(=O)Nc2ccccc2)O[C@H](CO)[C@@H](O)[C@@H]1O`, the Ki [1] was 337 µM, the Kinact [2] was 3.1 µM and the Selectivity ratio [5] was 100. The Selectivity ratio [3] was 109, the Selectivity ratio [6] was 100 and the Ki (Homo sapiens) was > 3000 µM.
`CCCC(=O)N[C@H]1/C(=N/OC(=O)Nc2ccccc2)O[C@H](CO)[C@@H](O)[C@@H]1O` showed a Ki [1] of 40 µM, a Kinact [2] of 0.26 µM and a Ki (Homo sapiens) of 26 µM.
For `CCCCC(=O)N[C@H]1/C(=N/OC(=O)Nc2ccccc2)O[C@H](CO)[C@@H](O)[C@@H]1O`, the Ki [1] was 40 µM, the Kinact [2] was 0.33 µM and the Selectivity ratio [3] was 121. For the same compound, the Ki (Homo sapiens) was 220 µM.
`CCCCCC(=O)N[C@H]1/C(=N/OC(=O)Nc2ccccc2)O[C@H](CO)[C@@H](O)[C@@H]1O` showed a Ki [1] of 220 µM, a Kinact [2] of 6.5 µM and a Selectivity ratio [3] of 33. The Ki (Homo sapiens) was > 900 µM.
In the case of `CO/N=C(\C(=O)N[C@@H]1C(=O)N2C(C(=O)O)=C(COC(C)=O)CS[C@H]12)c1csc(N)n1` [CEFOTAXIME], the MIC (Escherichia coli [7]) was 64 µg/mL (≈ 141 µM), the “inhibition zone (IZ)” value (Escherichia coli [8]) was 12.9 mm and the MIC (Escherichia coli [9]) was 128 µg/mL (≈ 281 µM). The “inhibition zone (IZ)” value (Escherichia coli [10]) was 10.3 mm, the MIC (Escherichia coli [11]) was 1 µg/mL (≈ 2.2 µM) and the MIC (Escherichia coli [12]) was 1 µg/mL (≈ 2.2 µM). The “inhibition zone (IZ)” value (Escherichia coli [13]) was 7.1 mm, the MIC (Escherichia coli [14]) was 64 µg/mL (≈ 141 µM) and the “inhibition zone (IZ)” value (Escherichia coli [15]) was 9 mm. The MIC (Escherichia coli [16]) was < 2 µg/mL, the MIC (Escherichia coli [17]) was 16 µg/mL (≈ 35.1 µM) and the MIC (Escherichia coli [18]) was < 2 µg/mL.
In the case of `CO[C@@]1(NC(=O)Cc2cccs2)C(=O)N2C(C(=O)O)=C(COC(N)=O)CS[C@@H]21` [CEFOXITIN], the MIC (Escherichia coli [7]) was 64 µg/mL (≈ 150 µM), the “inhibition zone (IZ)” value (Escherichia coli [8]) was 10.9 mm and the MIC (Escherichia coli [9]) was 512 µg/mL (≈ 1200 µM). The “inhibition zone (IZ)” value (Escherichia coli [10]) was 9.3 mm, the MIC (Escherichia coli [11]) was 1 µg/mL (≈ 2.34 µM) and the MIC (Escherichia coli [12]) was 1 µg/mL (≈ 2.34 µM). The “inhibition zone (IZ)” value (Escherichia coli [13]) was 8.8 mm, the MIC (Escherichia coli [14]) was 256 µg/mL (≈ 599 µM) and the “inhibition zone (IZ)” value (Escherichia coli [15]) was 10.8 mm. The MIC (Escherichia coli [16]) was 2 µg/mL (≈ 4.68 µM), the MIC (Escherichia coli [17]) was 32 µg/mL (≈ 74.9 µM) and the MIC (Escherichia coli [18]) was 2 µg/mL (≈ 4.68 µM).
For `CC(C)(O/N=C(\C(=O)N[C@@H]1C(=O)N2C(C(=O)[O-])=C(C[n+]3ccccc3)CS[C@H]12)c1csc(N)n1)C(=O)O` [CEFTAZIDIME], the MIC (Escherichia coli [7]) was 64 µg/mL (≈ 117 µM), the MIC (Escherichia coli [9]) was 256 µg/mL (≈ 468 µM) and the MIC (Escherichia coli [11]) was 1 µg/mL (≈ 1.83 µM). For the same compound, the MIC (Escherichia coli [12]) was 1 µg/mL (≈ 1.83 µM), the MIC (Escherichia coli [14]) was 64 µg/mL (≈ 117 µM) and the MIC (Escherichia coli [16]) was < 2 µg/mL. For the same compound, the MIC (Escherichia coli [17]) was 32 µg/mL (≈ 58.5 µM) and the MIC (Escherichia coli [18]) was < 2 µg/mL.
For `CO/N=C(\C(=O)N[C@@H]1C(=O)N2C(C(=O)O)=C(CSc3nc(=O)c(O)nn3C)CS[C@H]12)c1csc(N)n1` [CEFTRIAXONE], the MIC (Escherichia coli [7]) was 32 µg/mL (≈ 57.7 µM), the MIC (Escherichia coli [9]) was 128 µg/mL (≈ 231 µM) and the MIC (Escherichia coli [11]) was < 1 µg/mL. For the same compound, the MIC (Escherichia coli [12]) was < 1 µg/mL, the MIC (Escherichia coli [14]) was 32 µg/mL (≈ 57.7 µM) and the MIC (Escherichia coli [16]) was < 2 µg/mL. The MIC (Escherichia coli [17]) was 16 µg/mL (≈ 28.9 µM) and the MIC (Escherichia coli [18]) was < 2 µg/mL.
